This is an account of results in patent US8729009B2, “Lysine compounds and their use in site- and chemoselective modification of peptides and proteins” (Stichting Het Nederlands Kanker Instituut, priority 2009, dated 2014).

The nature of this data set: Solubility of the thiolysine-modified peptides in the ligation buffer. Type of data set: physicochemical. The note with it: Tris-HCl pH 7.5 buffer used during the ligation reaction. From the text:
This is not surprising as this peptide is made up for ≈50% of hydrophobic amino acids and contains 3 beta-strands in the native PCNA protein (see Supporting Information). Besides performing the ubiquitin ligations with an excess of peptide (rxn 1-3 and 6-16, FIGS. 6 and 7), it was also observed that the use of (roughly) equimolar amounts of ubiquitin and peptide (rxn 4, 5 FIG. 6 and FIGS. 8-10) allowed ligation. In order to be able to develop the here presented ligation methodology for solid phase peptide synthesis, with the peptide being anchored to the solid support, it is important to fully consume all peptide. In order to confirm that a polar organic solvent is compatible with the reaction conditions, we repeated the ubiquitin ligation of the H2B peptide TKAVTK*YTSSK, using a DMSO stock of the peptide, up to a final concentration of 10% DMSO (rxn 14-16, FIG. 7).

Take “GDAWISC*AK*DGVKFSASGELGNGNIKLSQ [Peptide 1]”: the solubility result is “only soluble in polar organic solvents such as DMF and DMSO”.
